Measurements published in patent US12178210B2, “Insect attractant and killing system” (priority 2020, dated 2024).
Read-outs that look alike come from different tables or passages of the source.

Legend:
[1] = field, Valencia; week 47; ave. temp. 20.40 ° C
Description: Every two weeks samples of the attractant were weighed to determine the mass. From the mass, the mass that had been released, the mass remaining, and the amount of ammonia released was determined.

[2] = for Attractant Release Rate (5-day average per time point): 15 g
From the text: All prototype lure devices (i.e., the attractant receptacle and permeable membrane with enclosed volatile insect attractant) were constructed using polypropylene/calcium carbonate film (UV8) for the permeable membrane and Scotchpak™ (3M) polyester laminate film for the impermeable barrier material. Each lure device measured approximately 11.5 cm×5.5 cm with a 1.6 mm ( 1/16 in) diameter spherical punch in the impermeable layer exposing the membrane and an ˜8 mm ( 5/16 in) diameter heat seal around the circumference of the punch (referred to as a ring seal). […] Prior to being deployed the lures were weighed on an analytical balance (Sartorius, Universal; resolution of 0.01 g). Prototype lures were attached to a cord that ran the length of ventilated laboratory fume hood, with 5-8 cm (2-3 in) separating each lure in an open, ventilated room at the indicated temperature (18-20° C. or 39-41° C.). Every 2-3 days the lures were removed from the cord and weighed on the same scale. Lure weight was recorded and the weight loss (g/day) was calculated. In addition to prototype lures, two controls were included in the study consisting of a current Suterra lure product (WHF lure) and a competitor product (Comp. Prod. 1).

Structure (SMILES): N.N.O=C(O)O [Ammonium Carbonate, ammonium carbonate]
- Avg. Mass Loss [1]: 9.48 g
- Avg. Mass Remaining [1]: 5.46 g
- Avg. Release Rate [1]: 0.044 g/day
- Release Rate ([2]; 40° C., 16 hours, UV8 membrane, 1.6 mm orifice): 0.39 g/day
- Release Rate ([2]; 40° C., 16 hours, second, unexplained block of rows): 0.02 g/day
- Release Rate ([2]; 40° C., 24 hours, UV8 membrane, 1.6 mm orifice): 0.37 g/day
- Release Rate ([2]; 40° C., 24 hours, second, unexplained block of rows): 0.03 g/day
- Release Rate ([2]; 40° C., 51 hours, UV8 membrane, 1.6 mm orifice): 0.36 g/day
- Release Rate ([2]; 40° C., 51 hours, second, unexplained block of rows): 0.05 g/day
- Release Rate ([2]; 40° C., 88 hours, UV8 membrane, 1.6 mm orifice): 0.36 g/day
- Release Rate ([2]; 40° C., 88 hours, second, unexplained block of rows): 0.09 g/day
- Release Rate ([2]; 40° C., 96 hours, UV8 membrane, 1.6 mm orifice): 0.36 g/day
- Release Rate ([2]; 40° C., 96 hours, second, unexplained block of rows): 0.09 g/day
- Release Rate ([2]; 40° C., 112 hours, UV8 membrane, 1.6 mm orifice): 0.36 g/day
- Release Rate ([2]; 40° C., 112 hours, second, unexplained block of rows): 0.10 g/day
- Release Rate ([2]; 40° C., 120 hours, UV8 membrane, 1.6 mm orifice): 0.36 g/day
- Release Rate ([2]; 40° C., 120 hours, second, unexplained block of rows): 0.11 g/day
- Release Rate ([2]; 40° C., 144 hours, UV8 membrane, 1.6 mm orifice): 0.36 g/day
- Release Rate ([2]; 40° C., 144 hours, second, unexplained block of rows): 0.13 g/day
- Release Rate ([2]; 40° C., 168 hours, UV8 membrane, 1.6 mm orifice): 0.35 g/day
- Release Rate ([2]; 40° C., 168 hours, second, unexplained block of rows): 0.15 g/day
- Attractant Release Rate (5-day average per time point) ([2]; 40° C., day 5, UV8 membrane, 1.6 mm orifice): 391.6 mg/day
- Attractant Release Rate (5-day average per time point) ([2]; 40° C., day 10, UV8 membrane, 1.6 mm orifice): 402.8 mg/day
- Attractant Release Rate (5-day average per time point) ([2]; 40° C., day 15, UV8 membrane, 1.6 mm orifice): 396.5 mg/day
- Attractant Release Rate (5-day average per time point) ([2]; 40° C., day 20, UV8 membrane, 1.6 mm orifice): 316.7 mg/day
- Attractant Release Rate (5-day average per time point) ([2]; 40° C., day 25, UV8 membrane, 1.6 mm orifice): 198.0 mg/day
- Attractant Release Rate (5-day average per time point) ([2]; 40° C., day 30, UV8 membrane, 1.6 mm orifice): 156.0 mg/day
- Attractant Release Rate (5-day average per time point) ([2]; 40° C., day 35, UV8 membrane, 1.6 mm orifice): 112.0 mg/day
- Attractant Release Rate (5-day average per time point) ([2]; 40° C., day 40, UV8 membrane, 1.6 mm orifice): 108.4 mg/day
- Attractant Release Rate (5-day average per time point) ([2]; 40° C., day 45, UV8 membrane, 1.6 mm orifice): 100.4 mg/day
- Attractant Release Rate (5-day average per time point) ([2]; 40° C., day 49, UV8 membrane, 1.6 mm orifice): 98.0 mg/day
- Attractant Release Rate (5-day average per time point) ([2]; 40° C., day 55, UV8 membrane, 1.6 mm orifice): 87.7 mg/day
- Attractant Release Rate (5-day average per time point) ([2]; Ambient Temperature, day 5, UV8 membrane, 1.6 mm orifice): 97 mg/day
- Attractant Release Rate (5-day average per time point) ([2]; Ambient Temperature, day 10, UV8 membrane, 1.6 mm orifice): 99.5 mg/day
- Attractant Release Rate (5-day average per time point) ([2]; Ambient Temperature, day 15, UV8 membrane, 1.6 mm orifice): 101.9 mg/day
- Attractant Release Rate (5-day average per time point) ([2]; Ambient Temperature, day 20, UV8 membrane, 1.6 mm orifice): 104.2 mg/day
- Attractant Release Rate (5-day average per time point) ([2]; Ambient Temperature, day 25, UV8 membrane, 1.6 mm orifice): 100.5 mg/day
- Attractant Release Rate (5-day average per time point) ([2]; Ambient Temperature, day 30, UV8 membrane, 1.6 mm orifice): 101.3 mg/day
- Attractant Release Rate (5-day average per time point) ([2]; Ambient Temperature, day 35, UV8 membrane, 1.6 mm orifice): 100.0 mg/day
- Attractant Release Rate (5-day average per time point) ([2]; Ambient Temperature, day 40, UV8 membrane, 1.6 mm orifice): 86.0 mg/day
- Attractant Release Rate (5-day average per time point) ([2]; Ambient Temperature, day 45, UV8 membrane, 1.6 mm orifice): 86.5 mg/day
- Attractant Release Rate (5-day average per time point) ([2]; Ambient Temperature, day 49, UV8 membrane, 1.6 mm orifice): 84.4 mg/day
- Attractant Release Rate (5-day average per time point) ([2]; Ambient Temperature, day 55, UV8 membrane, 1.6 mm orifice): 83.8 mg/day
- Release Rate ([2]; Ambient, 16 hours, UV8 membrane, 1.6 mm orifice): 0.12 g/day
- Release Rate ([2]; Ambient, 16 hours, second, unexplained block of rows): 0.01 g/day
- Release Rate ([2]; Ambient, 24 hours, UV8 membrane, 1.6 mm orifice): 0.12 g/day
- Release Rate ([2]; Ambient, 24 hours, second, unexplained block of rows): 0.01 g/day
- Release Rate ([2]; Ambient, 51 hours, UV8 membrane, 1.6 mm orifice): 0.12 g/day
- Release Rate ([2]; Ambient, 51 hours, second, unexplained block of rows): 0.04 g/day
- Release Rate ([2]; Ambient, 88 hours, UV8 membrane, 1.6 mm orifice): 0.11 g/day
- Release Rate ([2]; Ambient, 88 hours, second, unexplained block of rows): 0.06 g/day
- Release Rate ([2]; Ambient, 96 hours, UV8 membrane, 1.6 mm orifice): 0.12 g/day
- Release Rate ([2]; Ambient, 96 hours, second, unexplained block of rows): 0.07 g/day
- Release Rate ([2]; Ambient, 112 hours, UV8 membrane, 1.6 mm orifice): 0.11 g/day
- Release Rate ([2]; Ambient, 112 hours, second, unexplained block of rows): 0.08 g/day
- Release Rate ([2]; Ambient, 120 hours, UV8 membrane, 1.6 mm orifice): 0.12 g/day
- Release Rate ([2]; Ambient, 120 hours, second, unexplained block of rows): 0.08 g/day
- Release Rate ([2]; Ambient, 144 hours, UV8 membrane, 1.6 mm orifice): 0.11 g/day
- Release Rate ([2]; Ambient, 144 hours, second, unexplained block of rows): 0.08 g/day
- Release Rate ([2]; Ambient, 168 hours, UV8 membrane, 1.6 mm orifice): 0.11 g/day
- Release Rate ([2]; Ambient, 168 hours, second, unexplained block of rows): 0.11 g/day
